Measured values as given in the supplement of paper PMC10307832.

Assays:
Test in all cases: relative viability (nuclei count vs DMSO), 5 days (fraction); higher = more cells survive
[1] = compound: C1=CC2=NC=CN=C2C=C1/C=C/3\C(=O)NC(=O)S3 + C[C@]1(O)C[C@@H](c2nc(-c3ccc4ccc(-c5ccccc5)nc4c3)c3c(N)nccn32)C1 [Linsitinib] (partner 1 µM)
In short: (§1)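 Each reported value is a median over duplicate plates. It expresses relative viability: treated-well nuclei count divided by vehicle-well nuclei count. Lung cancer cell lines in 1536-well plates were dosed by pin tool a day after seeding, alone with one drug or with a fixed anchor-drug dose plus five library-drug doses (not always all listed) in √10 steps, and nuclei were counted after 5 days.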

[2] = compound: C1=CC2=NC=CN=C2C=C1/C=C/3\C(=O)NC(=O)S3 + COc1cc2c(Oc3ccc(NC(=O)C4(C(=O)Nc5ccc(F)cc5)CC4)cc3F)ccnc2cc1OCCCN1CCOCC1 [Foretinib] (partner 0.25 µM)
In short: as §1

BGJ398 + Pictilisib = compound: CCN1CCN(c2ccc(Nc3cc(N(C)C(=O)Nc4c(Cl)c(OC)cc(OC)c4Cl)ncn3)cc2)CC1 [BGJ398] + CS(=O)(=O)N1CCN(Cc2cc3nc(-c4cccc5[nH]ncc45)nc(N4CCOCC4)c3s2)CC1 [Pictilisib] (partner 1 µM)
In short: as §1

[3] = compound: C1=CC2=NC=CN=C2C=C1/C=C/3\C(=O)NC(=O)S3 + C[C@@H](Oc1cc(-c2cnn(C3CCNCC3)c2)cnc1N)c1c(Cl)ccc(F)c1Cl [Crizotinib] (partner 1 µM)
In short: as §1

| Cell Line | relative viability ([1]; first compound 0.02 µM) | relative viability ([1]; first compound 0.06325 µM) | relative viability ([1]; first compound 0.2 µM) | relative viability ([1]; first compound 0.6325 µM) | relative viability ([1]; first compound 2 µM) | relative viability ([2]; first compound 0.02 µM) | relative viability ([2]; first compound 0.06325 µM) | relative viability ([2]; first compound 0.2 µM) | relative viability ([2]; first compound 0.6325 µM) | relative viability ([2]; first compound 2 µM) | relative viability (BGJ398 + Pictilisib; first compound 0.01 µM) | relative viability (BGJ398 + Pictilisib; first compound 0.03162 µM) | relative viability (BGJ398 + Pictilisib; first compound 0.1 µM) | relative viability (BGJ398 + Pictilisib; first compound 0.3162 µM) | relative viability (BGJ398 + Pictilisib; first compound 1 µM) | relative viability ([3]; first compound 0.02 µM) | relative viability ([3]; first compound 0.06325 µM) | relative viability ([3]; first compound 0.2 µM) | relative viability ([3]; first compound 0.6325 µM) | relative viability ([3]; first compound 2 µM) |
| --- | --- | --- | --- | --- | --- | --- | --- | --- | --- | --- | --- | --- | --- | --- | --- | --- | --- | --- | --- | --- |
| LXF-289 | 0.928 | 0.921 | 0.993 | 0.941 | 0.933 | 0.925 | 0.92 | 0.953 | 0.982 | 0.908 | 0.773 | 0.707 | 0.682 | 0.685 | 0.573 | 0.766 | 0.735 | 0.785 | 0.777 | 0.858 |
| NCI-H2009 | 1.16 | 1.26 | 1.26 | 1.18 | 1.2 | 1.21 | 1.22 | 1.3 | 1.28 | 1.12 | 0.803 | 0.955 | 0.731 | 0.842 | 0.847 | 1.06 | 1.1 | 1.05 | 1.04 | 1.03 |
| NCI-H2405 | 0.96 | 1.08 | 1.03 | 0.959 | 0.915 | 1.06 | 1.12 | 1.13 | 1.03 | 0.838 | 0.406 | 0.587 | 0.42 | 0.482 | 0.421 | 0.865 | 0.847 | 0.826 | 0.869 | 0.798 |
| NCI-H1755 | 0.927 | 0.995 | 1.02 | 0.978 | 0.979 | 0.807 | 0.942 | 0.923 | 0.897 | 0.864 | 0.443 | 0.446 | 0.361 | 0.349 | 0.285 | 0.747 | 0.786 | 0.86 | 0.863 | 0.817 |
| HCC-78 | 0.488 | 0.517 | 0.54 | 0.497 | 0.403 | 0.54 | 0.469 | 0.538 | 0.534 | 0.4 | 0.184 | 0.217 | 0.188 | 0.194 | 0.221 | 0.341 | 0.309 | 0.296 | 0.337 | 0.25 |
| LOU-NH91 | 0.982 | 1.01 | 0.928 | 0.954 | 0.97 | 0.917 | 0.965 | 0.964 | 0.923 | 0.855 | 0.515 | 0.524 | 0.52 | 0.484 | 0.453 | 0.717 | 0.761 | 0.745 | 0.755 | 0.72 |
| IA-LM | 0.516 | 0.729 | 0.607 | 0.606 | 0.694 | 1.15 | 1.28 | 1.15 | 1.2 | 1.25 | 0.343 | 0.39 | 0.334 | 0.391 | 0.311 | 0.654 | – | 0.857 | 0.998 | 0.718 |
| NCI-H3122 | 1.01 | 1.15 | 0.955 | 1 | 1.17 | 0.963 | 0.985 | 0.917 | 0.867 | 0.96 | 0.609 | 0.652 | 0.625 | 0.678 | 0.582 | 0.298 | 0.253 | 0.277 | 0.265 | 0.203 |
| HCC-827 | 0.944 | 0.928 | 1 | 0.935 | 0.884 | 1.09 | 1.05 | 1.02 | 0.95 | 1.04 | 0.961 | 0.696 | 0.977 | 0.817 | 1.03 | 0.89 | 0.905 | 0.933 | 0.804 | 1.03 |
| SK-LU-1 | 1.2 | 1.22 | 1.15 | 1.06 | 0.989 | 0.861 | 0.968 | 0.751 | 0.785 | 0.791 | 0.547 | 0.61 | 0.497 | 0.531 | 0.424 | 0.913 | 1.3 | 0.985 | 0.903 | 1.07 |
| NCI-H1975 | 0.819 | 1.01 | 1.09 | 0.884 | 0.934 | 0.904 | 1.03 | 0.992 | 0.866 | 0.84 | 0.296 | 0.296 | 0.269 | 0.321 | 0.252 | 1.02 | 1.01 | 0.937 | 1.03 | 0.97 |
| NCI-H1703 | 1.04 | 1.13 | 1.1 | 0.696 | 0.741 | 0.38 | 0.442 | 0.34 | 0.295 | 0.324 | 0.233 | 0.198 | 0.21 | 0.218 | 0.242 | 0.638 | 0.701 | 0.656 | 0.811 | 0.674 |
| NCI-H1651 | 0.894 | 1.03 | 0.989 | 0.916 | 0.939 | 0.774 | 0.734 | 0.911 | 0.796 | 0.75 | 0.46 | 0.625 | 0.574 | 0.507 | 0.546 | 0.886 | 0.677 | 0.865 | 0.825 | 0.842 |
| NCI-H441 | 0.473 | 0.399 | 0.653 | 0.57 | 0.508 | 0.925 | 1.09 | 1.06 | 0.925 | 0.668 | 0.416 | 0.496 | 0.558 | 0.54 | 0.487 | 0.577 | 0.716 | 0.698 | 0.827 | 0.644 |
| LCLC-103H | 1.05 | 0.799 | 1.03 | 0.976 | 1.08 | 0.864 | 0.711 | 0.813 | 0.653 | 0.648 | 0.652 | 0.576 | 0.486 | 0.52 | 0.465 | 1.08 | 0.943 | 1.06 | 1.03 | 0.925 |
| LCLC-97TM1 | 0.23 | 0.188 | 0.203 | 0.162 | 0.145 | 0.919 | 0.908 | 0.908 | 0.996 | 0.688 | 0.186 | 0.189 | 0.207 | 0.298 | 0.163 | 0.391 | 0.344 | 0.375 | 0.354 | 0.218 |
| NCI-H727 | 0.341 | 0.223 | 0.33 | 0.403 | 0.252 | 0.954 | 0.852 | 1.04 | 0.853 | 0.588 | 0.455 | 0.504 | 0.176 | 0.316 | 0.293 | 0.768 | 0.842 | 0.75 | 0.794 | 0.517 |
| NCI-H1355 | 0.805 | 0.782 | 0.843 | 0.79 | 0.804 | 0.816 | 0.976 | 1.02 | 0.936 | 0.929 | 0.396 | 0.477 | 0.5 | 0.496 | 0.271 | 0.865 | 1.03 | 1.1 | 1.02 | 0.976 |
| HOP-62 | 1.04 | 0.982 | 1.1 | 1.01 | 1.06 | 1.06 | 1.22 | 1.11 | 1.01 | 1.07 | 0.731 | 0.768 | 0.649 | 1.16 | 0.669 | 1.1 | 0.953 | 1.03 | 0.93 | 0.911 |
| NCI-H2085 | 0.807 | 0.886 | 0.826 | 0.806 | 0.969 | 0.966 | 1.09 | 0.902 | 1.03 | 0.882 | 0.456 | 0.44 | 0.372 | 0.508 | 0.394 | 0.897 | 0.917 | 0.766 | 0.829 | 0.937 |
